{"source": "paper PMC6370995", "about": "“Phase I study of PF‐04895162, a Kv7 channel opener, reveals unexpected hepatotoxicity in healthy subjects, but not rats or monkeys: clinical evidence of disrupted bile acid homeostasis” (Pharmacology Research & Perspectives, 2019)", "key": {"healthy subjects": {"tested_on": "healthy subjects", "assay": "Phase 1 clinical study in healthy subjects: safety (adverse events, laboratory tests)", "assay_type": "in vivo, human", "method": "A randomized, double‐blind, third‐party open (i.e., subject and Investigator blind, and Sponsor open), placebo‐controlled study was conducted in healthy subjects to investigate the safety, tolerability, and pharmacokinetics of single and multiple oral doses of PF‐04895162 and to characterize the effect of food on the pharmacokinetics of a single oral dose of PF‐04895162. The study was conducted in accordance with the International Conference on Harmonization guideline for Good Clinical Practice and the principles of the Declaration of Helsinki and was approved by the local independent ethics committee. All subjects gave written informed consent prior to participation in the study. The study was planned as a parallel group, dose escalation study in four cohorts of 10 subjects each, however, the study was terminated prematurely and only Cohort 1 was conducted. After an initial screening visit to confirm eligibility, subjects in Cohort 1 (Figure 1) received single oral doses of 300 mg PF‐04895162 in Period 1 (under fasting conditions) and Period 2 (under fed conditions), and then 300 mg BID PF‐04895162 or placebo for 14 days (under fasting conditions) in Period 3 (the final dose was administered on the morning of Day 14). In Period 2, subjects were given a high‐fat breakfast 25 minutes prior to dosing which had to be consumed within 20 minutes. In all periods, subjects were fasted for at least 8 hours prior to morning dosing (except for breakfast in Period 2), and received lunch and dinner approximately 4 and 9‐10 hours after the morning dose, respectively. In Period 3, subjects were randomized so that eight subjects received PF‐04895162 and two subjects received placebo. The single doses in Periods 1 and 2, and the first dose in Period 3 were each separated by 3 days. A follow‐up visit was conducted 7‐14 days after the final dose. The ClinicalTrials.gov identifier was NCT01691274.\nSubjects were healthy males and/or females of nonchildbearing potential, aged 18 to 55 years inclusive with body mass index of 17.5 to 30.5 kg/m^2 and total body weight of >50 kg. Healthy was defined as no clinically relevant abnormalities identified by a detailed medical history, full physical examination, including blood pressure and pulse rate measurement, 12 lead electrocardiograms (ECGs) or clinical laboratory tests. Subjects with evidence or history of clinically significant disease (including drug allergies, but excluding untreated, asymptomatic, seasonal allergies at the time of dosing) and pregnant or nursing females were excluded from this study. Subjects with a history of seizures or conditions with a risk of seizures were also excluded. Other exclusion criteria were generally standard for healthy subject studies and included conditions affecting drug absorption, evidence of drug and/or alcohol abuse, and restrictions on the use of prescription, nonprescription, and over‐the‐counter medications and herbal remedies.\nSafety was assessed throughout the study by monitoring adverse events, vital signs (blood pressure, pulse rate, and body temperature), 12‐lead ECGs, and physical examinations. Blood samples for safety laboratory assessments were collected prior to and 24 hours after the first single dose of PF‐04895162 (Day 1 and 2 of Period 1), and in Period 3 on Days 7, 14, and 21 (additional samples were also collected in response to emerging safety data). The Columbia suicide severity rating scale (C‐SSRS) was also conducted at screening or baseline and at the follow‐up visit. Blood samples for pharmacokinetic profiles of PF‐04895162 were collected from predose to 72 hours after each single dose (Periods 1 and 2), and up to 12 and 48 hours after morning dosing on Days 7 and 14, respectively, in Period 3. Additional trough samples were also collected on Days 5, 6, 12, and 13 of Period 3."}, "[1]": {"assay": "7-Day Oral Toxicity Study in Rats (twice daily dosing, GLP)", "assay_type": "in vivo", "settings": "rat, in vivo, Day 7, 400 mg/kg/day"}, "Sprague-Dawley rats": {"tested_on": "Sprague-Dawley rats", "assay": "7-Day Oral Toxicity Study in Rats (twice daily dosing, GLP)", "assay_type": "in vivo"}, "[2]": {"settings": "300 mg single dose, fasted, N = 10"}, "[3]": {"settings": "300 mg single dose, fed, N = 10"}, "[4]": {"settings": "Grade 1, >1.25 - 2.5 × ULN, 300 mg BID"}, "[5]": {"settings": "Grade 2, >2.5 - 5 × ULN, 300 mg BID"}, "[6]": {"settings": "Grade 3, >5 - 10 × ULN, 300 mg BID"}, "[7]": {"settings": "100, 200, and 400 mg/kg/day, 7 days"}, "[8]": {"settings": "twice daily for 7 days, up to 400 mg/kg/day"}}, "note": "Like-named read-outs stand apart in the source and are kept apart here.", "data": [{"smiles": "O=C(Cc1ccc(F)cc1)Nn1c(C2CC2)nc2cc(F)ccc2c1=O", "note": "[PF‐04895162, N‐(2‐cyclopropyl‐7‐fluoro‐4‐oxoquinazolin‐3(4H)‐yl)‐2‐(4‐fluorophenyl)ethanamide]", "values": [{"measurement": "ALT, Subject 8, Day 7", "setting": "healthy subjects; 300 mg BID", "value": 1.5, "unit": "x the ULN"}, {"measurement": "Height of transaminase elevations", "setting": "healthy subjects; 300 mg BID, 14-day multiple dose", "value": "≤ 5", "unit": "x the ULN"}, {"measurement": "ALT elevation, Subject 8", "setting": "healthy subjects; 300 mg BID, Day 14, Grade 3", "value": 5.6, "unit": "x ULN"}, {"measurement": "AST increase, Subject 8", "setting": "healthy subjects; 300 mg BID, Grade 2", "value": 2.7, "unit": "x ULN"}, {"measurement": "Number of Subjects discontinued due to AEs, all causalities", "setting": "healthy subjects; 300 mg BID, N = 8", "value": "1 (1)"}, {"measurement": "Number of Subjects discontinued due to AEs, treatment-related", "setting": "healthy subjects; 300 mg BID, N = 8", "value": "1 (1)"}, {"measurement": "Number of Subjects with AEs, all causalities", "setting": "healthy subjects; 300 mg BID, N = 8", "value": 8}, {"measurement": "Number of Subjects with AEs, treatment-related", "setting": "healthy subjects; 300 mg BID, N = 8", "value": 6}, {"measurement": "Number of Subjects with Amylase increased, all causalities", "setting": "healthy subjects; 300 mg BID, N = 8", "value": "2 (2)"}, {"measurement": "Number of Subjects with Amylase increased, treatment-related", "setting": "healthy subjects; 300 mg BID, N = 8", "value": "2 (2)"}, {"measurement": "Number of Subjects with Decreased appetite, all causalities", "setting": "healthy subjects; 300 mg BID, N = 8", "value": 2}, {"measurement": "Number of Subjects with Decreased appetite, treatment-related", "setting": "healthy subjects; 300 mg BID, N = 8", "value": 0}, {"measurement": "Number of Subjects with Flatulence, all causalities", "setting": "healthy subjects; 300 mg BID, N = 8", "value": 2}, {"measurement": "Number of Subjects with Flatulence, treatment-related", "setting": "healthy subjects; 300 mg BID, N = 8", "value": 1}, {"measurement": "Number of Subjects with Transaminases increased, all causalities", "setting": "healthy subjects; 300 mg BID, N = 8", "value": "6 (6)"}, {"measurement": "Number of Subjects with Transaminases increased, treatment-related", "setting": "healthy subjects; 300 mg BID, N = 8", "value": "6 (6)"}, {"measurement": "Number of Subjects with serious AEs", "setting": "healthy subjects; 300 mg BID, N = 8", "value": 0}, {"measurement": "Number of Subjects with severe AEs", "setting": "healthy subjects; 300 mg BID, N = 8", "value": 0}, {"measurement": "ALT response, Subject 6", "setting": "healthy subjects; 300 mg BID, by Day 14", "value": "did not demonstrate any ALT elevations"}, {"measurement": "GGT elevation, Subject 8", "setting": "healthy subjects; 300 mg BID, starting on Day 14", "value": 1.4, "unit": "x ULN"}, {"measurement": "Subjects with elevations in ALT on Day 14", "setting": "healthy subjects; 300 mg BID, subjects who finished Period 3", "value": "six of the remaining seven subjects"}, {"measurement": "Number of Subjects discontinued due to AEs, all causalities", "setting": "healthy subjects; [2]", "value": 0}, {"measurement": "Number of Subjects with AEs, all causalities", "setting": "healthy subjects; [2]", "value": "1 (1)"}, {"measurement": "Number of Subjects with AEs, treatment-related", "setting": "healthy subjects; [2]", "value": "1 (1)"}, {"measurement": "Number of Subjects with Amylase increased, all causalities", "setting": "healthy subjects; [2]", "value": 0}, {"measurement": "Number of Subjects with Decreased appetite, all causalities", "setting": "healthy subjects; [2]", "value": 0}, {"measurement": "Number of Subjects with Flatulence, all causalities", "setting": "healthy subjects; [2]", "value": 0}, {"measurement": "Number of Subjects with Transaminases increased, all causalities", "setting": "healthy subjects; [2]", "value": 0}, {"measurement": "Number of Subjects with serious AEs", "setting": "healthy subjects; [2]", "value": 0}, {"measurement": "Number of Subjects with severe AEs", "setting": "healthy subjects; [2]", "value": 0}, {"measurement": "Number of Subjects discontinued due to AEs, all causalities", "setting": "healthy subjects; [3]", "value": 0}, {"measurement": "Number of Subjects with AEs, all causalities", "setting": "healthy subjects; [3]", "value": 2}, {"measurement": "Number of Subjects with AEs, treatment-related", "setting": "healthy subjects; [3]", "value": 0}, {"measurement": "Number of Subjects with Amylase increased, all causalities", "setting": "healthy subjects; [3]", "value": 0}, {"measurement": "Number of Subjects with Decreased appetite, all causalities", "setting": "healthy subjects; [3]", "value": 0}, {"measurement": "Number of Subjects with Flatulence, all causalities", "setting": "healthy subjects; [3]", "value": 0}, {"measurement": "Number of Subjects with Transaminases increased, all causalities", "setting": "healthy subjects; [3]", "value": 0}, {"measurement": "Number of Subjects with serious AEs", "setting": "healthy subjects; [3]", "value": 0}, {"measurement": "Number of Subjects with severe AEs", "setting": "healthy subjects; [3]", "value": 0}, {"measurement": "Subjects with transaminase elevations (≥grade 1)", "setting": "healthy subjects; 300 mg twice daily for 2 weeks, healthy subjects", "value": "six of eight"}, {"measurement": "Lipase, Subject 7", "setting": "healthy subjects; Day 3 of Period 3, 300 mg BID, ULN = 60 IU/L", "value": 434, "unit": "IU/L"}, {"measurement": "Amylase, Subject 7", "setting": "healthy subjects; Day 3 of Period 3, 300 mg BID, ULN = 136 IU/L", "value": 179, "unit": "IU/L"}, {"measurement": "TBIL abnormalities, number of subjects, Grade 1", "setting": "healthy subjects; Grade 1, >1 - 1.5 × ULN, 300 mg BID", "value": 2}, {"measurement": "ALT abnormalities, number of subjects, Grade 1", "setting": "healthy subjects; [4]", "value": 3}, {"measurement": "AST abnormalities, number of subjects, Grade 1", "setting": "healthy subjects; [4]", "value": 0}, {"measurement": "TBIL abnormalities, number of subjects, Grade 2", "setting": "healthy subjects; Grade 2, >1.5 - 2.5 × ULN, 300 mg BID", "value": 0}, {"measurement": "ALT abnormalities, number of subjects, Grade 2", "setting": "healthy subjects; [5]", "value": 2}, {"measurement": "AST abnormalities, number of subjects, Grade 2", "setting": "healthy subjects; [5]", "value": 1}, {"measurement": "TBIL abnormalities, number of subjects, Grade 3", "setting": "healthy subjects; Grade 3, >2.5 - 5 × ULN, 300 mg BID", "value": 0}, {"measurement": "ALT abnormalities, number of subjects, Grade 3", "setting": "healthy subjects; [6]", "value": 1}, {"measurement": "AST abnormalities, number of subjects, Grade 3", "setting": "healthy subjects; [6]", "value": 0}, {"measurement": "TBIL abnormalities, number of subjects, Grade 4", "setting": "healthy subjects; Grade 4, >5 × ULN, 300 mg BID", "value": 0}, {"measurement": "ALT abnormalities, number of subjects, Grade 4", "setting": "healthy subjects; Grade 4, >10 × ULN, 300 mg BID", "value": 0}, {"measurement": "AST abnormalities, number of subjects, Grade 4", "setting": "healthy subjects; Grade 4, >10 × ULN, 300 mg BID", "value": 0}, {"measurement": "Cmax", "setting": "[1]; female, read-out: Total Cmax (mean), female rats", "value": 10300, "unit": "ng/mL"}, {"measurement": "Cmax", "setting": "[1]; male, read-out: Total Cmax (mean), male rats", "value": 7920, "unit": "ng/mL"}, {"measurement": "Clinical findings and body temperature", "setting": "Sprague-Dawley rats; [7]", "value": "test article-induced hypothermic condition"}, {"measurement": "hematology parameters", "setting": "Sprague-Dawley rats; [7]", "value": "no adverse test article-related effects"}, {"measurement": "mortality", "setting": "Sprague-Dawley rats; [7]", "value": "All main study animals survived to study termination"}, {"measurement": "body weight and food consumption", "setting": "Sprague-Dawley rats; treated males and females", "value": "Decreases in body weight and food consumption"}, {"measurement": "ALT", "setting": "Sprague-Dawley rats; [8]", "value": "did not reproduce ALT findings"}, {"measurement": "liver weight", "setting": "Sprague-Dawley rats; [8]", "value": "increased liver weight in female rats"}]}]}
